Earlier results as cited in patent US12636273B2, “Compositions for pathogenesis-directed therapy and treatments of skin diseases and disorders” (YALE UNIVERSITY, priority 2019, dated 2026).

System: CHILD syndrome skin lesions
Details: topical application

CC(C)CCC[C@@H](C)[C@H]1CC[C@H]2[C@@H]3CC=C4C[C@@H](O)CC[C@]4(C)[C@H]3CC[C@]12C [cholesterol]
effect on skin lesions / phenotype: did not correct the phenotype
